Assay: gradient 5% acetonitrile 3 min, to 50% in 2 min, to 85% in 15 min, held 3 min, 100 µL/min
Conditions: column: Zorbax Extend-C18 2.1 x 50 mm; eluents: water / acetonitrile, 0.1% formic acid
In short: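 Using water and acetonitrile that each contained 0.1% formic acid, mixtures of ~100 pure standards were separated at 100 μL/min on a Zorbax Extend-C18 column (2.1 × 50 mm, 1.8 μm). The HPLC fed a quadrupole time-of-flight mass spectrometer working in positive and negative ionization mode, with dead and dwell volumes of 40 μL and 900 μL. Data were acquired over 3 months. Retention time was read from computationally picked adduct peaks after manual inspection of each.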

Row | Compound | RP-LC retention time [s]
1 | Cc1nnc(N2CCCC(C(=O)NCCc3c[nH]c4ccccc34)C2)c2nn(-c3ccccc3)c(C)c12 (stereo not given) | 706
2 | Cc1ccc2nc(-c3ccc(Cl)cc3)c(Nc3ccc4c(c3)OCO4)n2c1 | 756
3 | COc1cccc(-c2nc(-c3ccc4c(c3)ncn4CCN3CCCC3)no2)c1 | 653
4 | Cc1ccc2c(C(=O)N3CCC(C)CC3)cc(NC(=O)C3CCC3)cc2n1 | 652
5 | CCCN1CCN(CCCNC(=O)c2sc3ncccc3c2-n2cccc2)CC1 | 574
6 | CO[C@H]1C(=O)N(C(C)C)[C@H]1C1CCN(C(=O)c2ccsc2)CC1 | 693
7 | COc1ccc(-n2c(=O)n(C)c(=O)c3cc(C(=O)Nc4ccc(F)cc4C)cnc32)cc1 | 866
8 | Cc1nnc2n1CCN(C(=O)Cc1c(F)cccc1Cl)C2 | 616
9 | CCOCCOC1CCN(C(=O)c2cccs2)CC1 | 725
10 | Cc1noc([C@@H]2CN(Cc3cc(Cl)ccc3F)C[C@H]2CO)n1 | 594
11 | Cn1nnc2cc(-c3noc(C4CCCO4)n3)ccc21 (stereo not given) | 730
12 | Cc1cc(C)n(-c2ncnc3c2cnn3Cc2ccccc2Cl)n1 | 1330
13 | Cc1ccc(S(=O)(=O)N2CCC3(CC2)NCCN=C3NCc2ccccc2C)c(C)c1 | 788
14 | O=C(NCCn1ncccc1=O)C1CCN(c2ccc(-c3ccc(F)cc3)nn2)CC1 | 560
15 | Cc1ccc(-n2nc(C(=O)N3CCN(c4ccccn4)CC3)c3c4ccccc4n(C)c3c2=O)cc1 | 705
16 | CCCCOc1ccc(-c2cc3c(N4CCN(C)CC4)nccn3n2)cc1 | 754
17 | CC(NC(=O)c1ccco1)c1nc2ccccc2n1CC(=O)N1CCCC1 (stereo not given) | 614
18 | CCn1nccc1C(=O)NCCn1c(=O)n(Cc2ccccc2)c2cccnc21 | 740
19 | O=S(=O)(c1cccc2cccnc12)N1CC[C@@H]2COCCN(Cc3cccnc3)[C@@H]2C1 | 600
20 | O=c1c2sccc2n(Cc2nc(-c3ccc(Br)cc3)no2)c(=O)n1-c1ccc(F)cc1 | 1100
21 | Cc1ccc2[nH]cc(CCNC(=O)c3cc(-c4cccnc4)nc4ccccc34)c2c1 | 784
22 | COc1ccc(NS(=O)(=O)c2cc(-c3[nH]ncc3C(=O)N(C)C)oc2C)cc1F | 672

Row | Compound | RP-LC retention time [s]
23 | CCc1cc(=O)n(CC(=O)Nc2ccc(F)cc2F)c(N2CCOCC2)n1 | 743
24 | O=C(O)CCNc1c(-c2ccc(F)cc2)nc2cnccn12 | 619
25 | Cn1nc(C(=O)NCc2ccc3c(c2)OCO3)c2c1CCN(C(=O)COc1ccc(Cl)cc1)C2 | 856
26 | COc1ccc(-c2nc(Cn3ccn4nc(-c5ccccc5)cc4c3=O)c(C)o2)c(OC)c1 | 1030
27 | CCCN(CC(=O)N(Cc1ccco1)CC1CCCO1)C(=O)Cc1ccc(F)cc1 (stereo not given) | 872
28 | CCc1ccc(CNC(=O)C2CCCN(c3nccnc3Oc3ccc(C)cc3)C2)cc1 (stereo not given) | 1150
29 | Cc1cc(C)c2c(N)c(C(=O)c3ccccn3)sc2n1 | 739
30 | COCCNC(=O)CCc1cn(Cc2ccccc2C)c2ccccc12 | 919
31 | CCCN1C(=O)Cc2ccccc2C1C(=O)NCC1CCCCC1 (stereo not given) | 881
32 | CN(C)C[C@@H]1CN(c2ncccn2)C[C@H]1NS(=O)(=O)Cc1ccc(F)cc1 | 590
33 | COC(=O)c1c(NCc2cc(F)cc(F)c2)c2cccc(Cl)c2[nH]c1=O | 808
34 | CCOc1ccc(NC(=O)Cn2c(=O)cc(-c3nc(C)no3)c3ccccc32)cc1 | 862
35 | CC(C)n1c(CCNC(=O)c2ccc(C#N)cc2)nc2cccnc21 | 639
36 | COc1ccc2ncc(C(=O)c3ccc(C)cc3)c(N3CCN(C)CC3)c2c1 | 582
37 | O=C(Cc1ccc(Cl)cc1)Nc1nnc(SCc2nnc(-c3ccccc3)o2)s1 | 955
38 | COc1ccc(OCc2noc(CNS(=O)(=O)c3ccc4c(c3)CCCC4)n2)cc1 | 968
39 | Cc1ccc(C)c(NC(=O)C2CC(=O)N(c3n[nH]c4cccc(F)c34)C2)c1 (stereo not given) | 758
40 | CC(C)S(=O)(=O)c1ccc(CC(=O)N2CCC(c3nnc(-c4ccco4)o3)CC2)cc1 | 669
41 | Cc1ccc(C)c(CNC(=O)Cn2c(=O)c3nnc(C)n3c3ncccc32)c1 | 712
42 | COc1ccc(C2=C(C)C(N3CCC(C(=O)N(C)Cc4ccco4)CC3)=NS2(=O)=O)cc1 | 815
43 | CN(C)c1ncncc1N1CCC(C(=O)NCc2ccco2)CC1 | 588
44 | CC(=O)Nc1cccc(C2OC(c3c(OC(C)=O)ccc4ccccc34)=NN2C(C)=O)c1 (stereo not given) | 838

Row | Compound | RP-LC retention time [s]
45 | CC(=O)N1CCOc2cc(S(=O)(=O)N3CCCCCC3c3cccc(F)c3)ccc21 (stereo not given) | 999
46 | Cc1ccc(CN2CCN(C3CCN(C(=O)Nc4ccc(F)cc4F)CC3)C(=O)C2=O)cc1 | 748
47 | CC(C)C(=O)N1CCC2(C1)c1nc[nH]c1CCN2CC1CCCCC1 (stereo not given) | 608
48 | CC(=O)N1CCN(CCOc2ccc(C3CCN(C4=Nn5c(nnc5C(F)(F)F)CC4)CC3)cc2)CC1 | 686
49 | Cc1cc(C)n(-c2nc(CC(=O)Nc3ccccc3F)cs2)n1 | 961
50 | CCC(=O)N1CCc2cc(N3CC(C(=O)Nc4ccc(OC)c(Cl)c4)CC3=O)ccc21 (stereo not given) | 779
51 | CCN(CC)c1ccc(-c2noc(CN3CCSCC3)n2)cn1 | 651
52 | CCOC(=O)c1nc(NCc2ccccc2OC)c2ccccc2n1 | 774
53 | COCCNC(=O)CN1c2ccccc2NC2=C(C(=O)CC(C)(C)C2)C1c1ccc(F)cc1 (stereo not given) | 752
54 | Cc1cccc2nc(-c3cccc(Cl)c3)c(Nc3ccc4c(c3)OCCO4)n12 | 717
55 | COc1cccc(-c2nc(C3CC(=O)N(c4ccc(Cl)cc4)C3)no2)c1 (stereo not given) | 1050
56 | O=C(c1cc(-c2ccncc2)n[nH]1)N1CCC(C(=O)N2CCN(c3ccc(F)cc3)CC2)CC1 | 611
57 | Cc1ccc(S(=O)(=O)N2CCC3(CC2)CC(C)(O)CCO3)cc1 (stereo not given) | 806
58 | COc1ccc(Cl)cc1NC(=O)C1CCN(S(=O)(=O)c2ccc3c(c2)NC(=O)C(C)O3)CC1 (stereo not given) | 946
59 | CC1CCN(S(=O)(=O)N2CCCC(C(=O)NCCCN3CCc4ccccc4C3)C2)CC1 (stereo not given) | 714
60 | Cn1c(N2CCN(S(=O)(=O)c3cc(F)ccc3F)CC2)nc2ccccc21 | 601
61 | Cc1ncsc1C1N(C2CCN(Cc3cn(C)c4ccccc34)CC2)C(=O)C12CCCC2 (stereo not given) | 693
62 | CCOc1ccc(NC(=O)c2cc3sc(Cl)cc3n2CC)cc1 | 1240
63 | CCc1ccc(C(=O)N2CC3CN(S(=O)(=O)c4cccc(C)c4)CC(C2)O3)cc1 | 925
64 | CC(=O)N1c2ccc(S(=O)(=O)N3CCCCC3)cc2CC1C(=O)NCCN1CCCCCC1 (stereo not given) | 639
65 | COc1ccc(NC(=O)Cn2c(C)cc(-c3nnc(C4CCC4)o3)c2C)cc1OC | 796
